{
  "source": "patent US11524966B1",
  "about": "(Valo Early Discovery, Inc., priority 2017, dated 2022)",
  "data": [
    {"biological_target": "T1, USP28 (USP28-5(1-1077)-TEV-6*His; LifeSensors) (Homo sapiens, UniProt Q96RU2)", "T1 construct": "construct USP28 (USP28-5(1-1077)-TEV-6*His; LifeSensors); TEV cleavage site (C); 6xHis (C); purchased LifeSensors", "T1 sequence (Q96RU2 1-1077)": "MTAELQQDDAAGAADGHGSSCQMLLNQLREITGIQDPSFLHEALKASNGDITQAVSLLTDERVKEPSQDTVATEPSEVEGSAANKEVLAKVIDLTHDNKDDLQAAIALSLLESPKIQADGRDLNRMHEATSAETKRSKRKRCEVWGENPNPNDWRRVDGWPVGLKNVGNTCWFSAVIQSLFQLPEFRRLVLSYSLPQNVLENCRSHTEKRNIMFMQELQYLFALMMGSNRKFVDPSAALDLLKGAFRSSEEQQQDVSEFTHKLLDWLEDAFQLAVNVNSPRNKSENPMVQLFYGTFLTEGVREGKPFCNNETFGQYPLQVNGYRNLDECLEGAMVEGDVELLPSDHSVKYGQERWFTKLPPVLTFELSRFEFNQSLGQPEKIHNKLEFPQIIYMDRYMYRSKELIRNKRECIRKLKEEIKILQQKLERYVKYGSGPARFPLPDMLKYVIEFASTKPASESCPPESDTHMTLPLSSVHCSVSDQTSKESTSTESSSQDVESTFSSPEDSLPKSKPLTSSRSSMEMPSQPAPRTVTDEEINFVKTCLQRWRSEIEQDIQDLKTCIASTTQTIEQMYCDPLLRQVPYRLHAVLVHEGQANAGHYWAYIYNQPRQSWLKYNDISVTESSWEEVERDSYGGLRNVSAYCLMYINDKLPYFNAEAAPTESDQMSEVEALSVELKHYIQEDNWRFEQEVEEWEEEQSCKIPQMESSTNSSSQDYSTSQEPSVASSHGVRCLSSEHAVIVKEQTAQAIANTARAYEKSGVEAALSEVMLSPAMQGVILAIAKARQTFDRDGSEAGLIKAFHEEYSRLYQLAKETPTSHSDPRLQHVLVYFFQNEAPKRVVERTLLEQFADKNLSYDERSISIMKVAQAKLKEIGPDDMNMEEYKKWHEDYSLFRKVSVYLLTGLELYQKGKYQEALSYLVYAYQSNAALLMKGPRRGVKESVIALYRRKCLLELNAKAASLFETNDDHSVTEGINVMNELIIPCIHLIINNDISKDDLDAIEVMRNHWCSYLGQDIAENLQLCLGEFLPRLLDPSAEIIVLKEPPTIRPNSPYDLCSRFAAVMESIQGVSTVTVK", "assay": "Ubiquitin-Rhodamine 110 Assay for USP28 Activity, Example A-1(b)", "format": "biochemical", "details": "Ubiquitin-Rhodamine 110 assay, Example A-1(b)", "how_it_was_run": "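Single-point screening used 10 μM compound with 90 min room-temperature incubation; follow-up dose-responses (25 μM top, 3-fold) used 75 pM USP28 1-1077 construct, 30 min compound preincubation, 25 nM Ub-Rh110, 20 min reaction, citric acid quench. Rh110 fluorescence normalised to no-enzyme and DMSO controls; IC50 from 4-parameter logistic fit.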", "values": [
      {"smiles": "Cc1nc2sc(C(=O)N[C@H]3COc4c(F)c(N5CCNCC5)cc(F)c4C3)c(N)c2s1", "note": "[Example 56, (R)-6-amino-N-(5,8-difluoro-7-(piperazin-1-yl)chroman-3-yl)-2-methylthieno[2,3-d]thiazole-5-carboxamide]", "USP28 A-1(b) IC50 range": "+++ (0.05-0.2 μM)"},
      {"smiles": "Cc1nc2sc(C(=O)N[C@H]3COc4cc(N5CC6CCC(C5)N6)c(F)cc4C3)c(N)c2s1", "note": "[Example 47, N-((3R)-7-(3,8-diazabicyclo[3.2.1]octan-3-yl)-6-fluorochroman-3-yl)-6-amino-2-methylthieno[2,3-d]thiazole-5-carboxamide]", "USP28 A-1(b) IC50 range": "+ (>2 μM)"},
      {"smiles": "Cc1ccc2c(N)c(C(=O)N[C@@H]3COc4cc(N5C[C@H]6CNC[C@@H]6C5)ccc4C3)sc2n1", "note": "[Example 44, 3-amino-N-((S)-7-((3aR,6aR)-hexahydropyrrolo[3,4-c]pyrrol-2(1H)-yl)chroman-3-yl)-6-methylthieno[2,3-b]pyridine-2-carboxamide]", "USP28 A-1(b) IC50 range": "+ (>2 μM)"},
      {"smiles": "Cc1ccc2c(N)c(C(=O)N[C@@H]3COc4cc(N5CCNCC5)cc(Cl)c4C3)sc2n1", "note": "[Example 49, (S)-3-amino-N-(5-chloro-7-(piperazin-1-yl)chroman-3-yl)-6-methylthieno[2,3-b]pyridine-2-carboxamide]", "USP28 A-1(b) IC50 range": "+ (>2 μM)"},
      {"smiles": "O=C(N[C@H]1COc2cc(N3CCNCC3)ccc2C1)c1cnc2c(ccn2Cc2ccccc2)c1", "note": "[Example 59, (R)-1-benzyl-N-(7-(piperazin-1-yl)chroman-3-yl)-1H-pyrrolo[2,3-b]pyridine-5-carboxamide]", "USP28 A-1(b) IC50 range": "+++ (0.05-0.2 μM)"},
      {"smiles": "Cc1ccc2c(N)c(C(=O)N[C@H]3COc4cc(N5CCNCC5)cc(Cl)c4C3)sc2n1", "note": "[Example 48, (R)-3-amino-N-(5-chloro-7-(piperazin-1-yl)chroman-3-yl)-6-methylthieno[2,3-b]pyridine-2-carboxamide]", "USP28 A-1(b) IC50 range": "+++ (0.05-0.2 μM)"},
      {"smiles": "C[C@@H](Nc1ccc(C(=O)N[C@H]2COc3cc(N4CCNCC4)ccc3C2)cn1)c1ccccc1", "note": "[Example 54, 6-(((R)-1-phenylethyl)amino)-N-((R)-7-(piperazin-1-yl)chroman-3-yl)nicotinamide]", "USP28 A-1(b) IC50 range": "+ (>2 μM)"},
      {"smiles": "Cc1ccc2c(N)c(C(=O)N[C@H]3COc4cc([C@@H]5CCNC[C@@H]5O)ccc4C3)sc2n1", "note": "[Example 63, 3-amino-N-((R)-7-((3R,4S)-3-hydroxypiperidin-4-yl)chroman-3-yl)-6-methylthieno[2,3-b]pyridine-2-carboxamide]", "USP28 A-1(b) IC50 range": "+++ (0.05-0.2 μM)"},
      {"smiles": "CCc1cnc2sc(C(=O)N[C@H]3COc4cc(N5CCNCC5)ccc4C3)c(N)c2n1", "note": "[Example 36, (R)-7-amino-2-ethyl-N-(7-(piperazin-1-yl)chroman-3-yl)thieno[2,3-b]pyrazine-6-carboxamide]", "USP28 A-1(b) IC50 range": "++ (0.2-2 μM)"},
      {"smiles": "O=C(N[C@H]1COc2cc(N3CCNCC3)ccc2C1)c1cnc2c(ccn2C(F)F)c1", "note": "[Example 38, (R)-1-(difluoromethyl)-N-(7-(piperazin-1-yl)chroman-3-yl)-1H-pyrrolo[2,3-b]pyridine-5-carboxamide]", "USP28 A-1(b) IC50 range": "+ (>2 μM)"},
      {"smiles": "Cc1nc2sc(C(=O)N[C@@H]3COc4cc(N5CC6CCC(C5)N6)c(F)cc4C3)c(N)c2s1", "note": "[Example 46, N-((3S)-7-(3 8-diazabicyclo[3.2.1]octan-3-yl)-6-fluorochroman-3-yl)-6-amino-2-methylthieno[2,3-d]thiazole-5-carboxamide]", "USP28 A-1(b) IC50 range": "++ (0.2-2 μM)"},
      {"smiles": "CCc1cnc2sc(C(=O)N[C@@H]3COc4cc(N5CCNCC5)ccc4C3)c(N)c2n1", "note": "[Example 37, (S)-7-amino-2-ethyl-N-(7-(piperazin-1-yl)chroman-3-yl)thieno[2,3-b]pyrazine-6-carboxamide]", "USP28 A-1(b) IC50 range": "+ (>2 μM)"},
      {"smiles": "Nc1c(C(=O)N[C@H]2COc3cc(N4CCNCC4)ccc3C2)sc2nc(C3CC3)sc12", "note": "[Example 45]", "USP28 A-1(b) IC50 range": "++ (0.2-2 μM)"},
      {"smiles": "Cc1ccc2c(N)c(C(=O)N[C@H]3COc4cc([C@H]5CCNC[C@H]5O)ccc4C3)sc2n1", "note": "[Example 62, 3-amino-N-((R)-7-((3S,4R)-3-hydroxypiperidin-4-yl)chroman-3-yl)-6-methylthieno[2,3-b]pyridine-2-carboxamide]", "USP28 A-1(b) IC50 range": "++++ (0.001-0.05 μM)"},
      {"smiles": "Cc1ccc2c(N)c(C(=O)N[C@H]3COc4cc(N5C[C@H]6CNC[C@@H]6C5)ccc4C3)sc2n1", "note": "[Example 43, 3-amino-N-((R)-7-((3aR,6aR)-hexahydropyrrolo[3,4-c]pyrrol-2(1H)-yl)chroman-3-yl)-6-methylthieno[2,3-b]pyridine-2-carboxamide]", "USP28 A-1(b) IC50 range": "+ (>2 μM)"},
      {"smiles": "O=C(N[C@H]1COc2cc(N3CC4CCC(C3)N4)ccc2C1)c1cnc2c(c1)CCCN2", "note": "[Example 50, N-((3R)-7-(3,8-diazabicyclo[3.2.1]octan-3-yl)chroman-3-yl)-5,6,7,8-tetrahydro-1,8-naphthyridine-3-carboxamide]", "USP28 A-1(b) IC50 range": "++ (0.2-2 μM)"},
      {"smiles": "O=C(N[C@@H]1COc2cc(N3CCNCC3)ccc2C1)c1cnc2c(ccn2C(F)F)c1", "note": "[Example 39, (S)-1-(difluoromethyl)-N-(7-(piperazin-1-yl)chroman-3-yl)-1H-pyrrolo[2,3-b]pyridine-5-carboxamide]", "USP28 A-1(b) IC50 range": "+ (>2 μM)"},
      {"smiles": "O=C(N[C@H]1COc2cc(N3CC4CCC(C3)N4)ccc2C1)c1cnc2c(c1)CCCO2", "note": "[Example 51, N-((3R)-7-(3,8-diazabicyclo[3.2.1]octan-3-yl)chroman-3-yl)-3,4-dihydro-2H-pyrano[2,3-b]pyridine-6-carboxamide]", "USP28 A-1(b) IC50 range": "+ (>2 μM)"},
      {"smiles": "Cc1ccc2c(N)c(C(=O)N[C@H]3COc4cc(N5CCNCC5)c(F)c(F)c4C3)sc2n1", "note": "[Example 61, (R)-3-amino-N-(5,6-difluoro-7-(piperazin-1-yl)chroman-3-yl)-6-methylthieno[2,3-b]pyridine-2-carboxamide]", "USP28 A-1(b) IC50 range": "+++ (0.05-0.2 μM)"},
      {"smiles": "O=C(N[C@H]1COc2cc(N3CCNCC3)ccc2C1)c1ccc(NCc2ccccc2)nc1", "note": "[Example 52, (R)-6-(benzylamino)-N-(7-(piperazin-1-yl)chroman-3-yl)nicotinamide]", "USP28 A-1(b) IC50 range": "+ (>2 μM)"},
      {"smiles": "Cc1ccc2c(N)c(C(=O)N[C@H]3COc4c(F)c(N5CCNCC5)cc(F)c4C3)sc2n1", "note": "[Example 55, (R)-3-amino-N-(5,8-difluoro-7-(piperazin-1-yl)chroman-3-yl)-6-methylthieno[2,3-b]pyridine-2-carboxamide]", "USP28 A-1(b) IC50 range": "++++ (0.001-0.05 μM)"},
      {"smiles": "C[C@H](Nc1ccc(C(=O)N[C@H]2COc3cc(N4CCNCC4)ccc3C2)cn1)c1ccccc1", "note": "[Example 53, 6-(((S)-1-phenylethyl)amino)-N-((R)-7-(piperazin-1-yl)chroman-3-yl)nicotinamide]", "USP28 A-1(b) IC50 range": "+ (>2 μM)"},
      {"smiles": "Cc1cnc2c(N)c(C(=O)N[C@H]3COc4cc(N5CC6CCC(C5)N6)c(F)cc4C3)sc2n1", "note": "(single isomer, unassigned) [Example 40]", "USP28 A-1(b) IC50 range": "+++ (0.05-0.2 μM)"},
      {"smiles": "Cc1cnc2c(N)c(C(=O)N[C@@H]3COc4cc(N5CC6CCC(C5)N6)c(F)cc4C3)sc2n1", "note": "(single isomer, unassigned) [Example 41]", "USP28 A-1(b) IC50 range": "+ (>2 μM)"}
    ]}
  ]
}
